# Like-named read-outs stand apart in the source and are kept apart here.
# How the values were obtained:
# [1] = cited from earlier work; for hygroscopicity (in words) / stability (in words): as described in the cited patent or publication
# [2] = Storage of crystalline azithromycin monohydrate under ambient conditions (25° C. and 60% relative humidity); format: physicochemical
# Source text: (§1) The drying step in step (d) may be performed in stages. To achieve the desired water content, the isolated precipitate may first be dried for a period of time; and then dried for a subsequent period of time. Water content may be conveniently determined at different stages to ensure that a specified water content is achieved. Drying time and conditions may be easily optimized by one skilled in the art. Water content determination is in accordance to U.S. Pharmacopeia (USP) <921> Method I, which is incorporated herein by reference in its entirety.
# (§2) (i) Chromatographic Conditions—The purity of a crystalline azithromycin monohydrate sample was determined using a high performance liquid chromatography (HPLC) instrument with a variable wavelength detector. The chromatographic conditions were: (i) Column—Xterra RP-18, endcapped 5 μm, 250×4.6 mm or equivalent; (ii) Flow Rate—1.0 mL/min; (iii) Column temperature—28° C.; (iv) Detection—UV at 215 nm; (v) Injection volume—20 μL; (vi) Run time—30 min; and, (vii) Mobile phase,Borate buffer pH=9.5: Acetonitrile (1:1, v/v). The mobile phase was prepared by adding NaOH (5N) to a solution of boric acid (about 1.2 grams) in water (1,000 mL; HPLC grade) to obtain a pH of 9.5.
# (§3) (ii) Standard Solution for Purity Determination—A standard solution for purity determination was prepared by dissolving azithromycin monohydrate (about 50 mg, accurately weighed), in sufficient acetonitrile to fill a 25 mL volumetric flask. The azithromycin monohydrate used in the standard solution was prepared according to the procedure set forth in U.S. Pat. No. 6,268,489.
# (§4) (iii) Preparation of Crystalline Azithromycin Monohydrate Sample Solution—A crystalline azithromycin monohydrate sample solution was prepared by transferring approximately 50 mg of the crystalline azithromycin monohydrate sample to be assayed into a 25 mL volumetric flask and diluting to volume with acetonitrile.
# (§5) (iv) HPLC Protocol—The retention time of azithromycin was about 20 minutes. The retention time of azaerythromycin was about 13 minutes. Six replicates of the standard solution for determination of impurities, and 5 replicates of the standard solution for purity determination were injected into the HPLC system. The relative standard deviation of 5 replicate injections of the standard solution for purity determination was not more than 2.0%. The relative standard deviation of 6 replicate injections of the standard solution for determination of impurities was not more than 5.0%. If necessary, the mobile phase composition and/or flow rate were adjusted to meet the chromatographic parameters. The limit of detection for azaerythromycin was 0.04%. The limit of quantitation for azaerythromycin was 0.04%. The limit of detection for azithromycin was 0.04%. The limit of quantitation for azithromycin was 0.05%.
# (§6) [formula] The terms are defined as follows: (i) Wst=Weight of standard in mg; (ii) Wsm=Weight of sample in mg; (iii) Ssm=Peak area of azithromycin obtained from sample solution; (iv) Sst=Average peak area of azithromycin obtained from standard solution for purity determination; (v) Pst=Purity of azithromycin standard in percent; and (vi) Msm=Water content of sample in percent. (B) Determination of Ethanol Content of Crystalline Azithromycin Monohydrate
# (§7) The hygroscopicity of a crystalline azithromycin monohydrate was determined by monitoring its water content during storage. Specifically, the water content of the crystalline azithromycin monohydrate was determined at time zero and at various times thereafter during storage (e.g., 1, 2, and 3 months) under ambient conditions and accelerated conditions.
# [3] = Storage of crystalline azithromycin monohydrate under accelerated conditions (40° C. and 75% relative humidity); format: physicochemical
# Source text: as §1, §2, §3, §4, §5, §6, §7
# [4] = 3 months at 25° C. and 60% relative humidity
# [5] = 25° C., 60% relative humidity, 0 months
# [6] = 25° C., 60% relative humidity, 3 months
# [7] = 3 months at 40° C. and 75% relative humidity
# [8] = 40° C., 75% relative humidity, 0 months
# [9] = 40° C., 75% relative humidity, 1 month
# [10] = 40° C., 75% relative humidity, 2 months
# [11] = 40° C., 75% relative humidity, 3 months
smiles,measurement,setting,value
CC[C@H]1OC(=O)[C@H](C)[C@@H](O[C@H]2C[C@@](C)(OC)[C@@H](O)[C@H](C)O2)[C@H](C)[C@@H](O[C@@H]2O[C@H](C)C[C@H](N(C)C)[C@H]2O)[C@](C)(O)C[C@@H](C)CN(C)[C@H](C)[C@@H](O)[C@]1(C)O [azithromycin dihydrate],hygroscopicity (in words),[1],non-hygroscopic
same,stability (in words),[1],stable
CC[C@H]1OC(=O)[C@H](C)[C@@H](O[C@H]2C[C@@](C)(OC)[C@@H](O)[C@H](C)O2)[C@H](C)[C@@H](O[C@@H]2O[C@H](C)C[C@H](N(C)C)[C@H]2O)[C@](C)(O)C[C@@H](C)CN(C)[C@H](C)[C@@H](O)[C@]1(C)O.O [azithromycin monohydrate form],hygroscopicity (in words),[1],non-hygroscopic
same,stability (in words),[1],stable
CC[C@H]1OC(=O)[C@H](C)[C@@H](O[C@H]2C[C@@](C)(OC)[C@@H](O)[C@H](C)O2)[C@H](C)[C@@H](O[C@@H]2O[C@H](C)C[C@H](N(C)C)[C@H]2O)[C@](C)(O)C[C@@H](C)CN(C)[C@H](C)[C@@H](O)[C@]1(C)O [azithromycin monohydrate],hygroscopicity (in words),[1],hygroscopic
same,stability (in words),[1],unstable
"CC[C@H]1OC(=O)[C@H](C)[C@@H](OC2CC(C)(OC)C(O)C(C)O2)[C@H](C)[C@@H](OC2OC(C)CC(N(C)C)C2O)[C@](C)(O)C[C@@H](C)CN(C)[C@H](C)C(O)[C@]1(C)O (stereo partly drawn) [azithromycin, 9-deoxo-9a-aza-9a-methyl-9a-homoerythromycin A]",stability under acidic conditions,"[1]; acidic conditions, U.S. Pat. No. 6,586,576 B2",unstable
CC[C@H]1OC(=O)[C@H](C)[C@@H](O[C@H]2C[C@@](C)(OC)[C@@H](O)[C@H](C)O2)[C@H](C)[C@@H](O[C@@H]2O[C@H](C)C[C@H](N(C)C)[C@H]2O)[C@](C)(O)C[C@@H](C)CN(C)[C@H](C)[C@@H](O)[C@]1(C)O.O [crystalline azithromycin monohydrate],hygroscopicity (in words),[2]; [4],non-hygroscopic
same,stability (in words),[2]; [4],stable
same,water content after storage (in words),[2]; 3 months under ambient conditions,remained substantially unchanged
same,degradation products present after storage,"[2]; 3 months, ambient (room temperature)",less than 2 % (w/w)
same,Appearance,[2]; [5],White crystalline
same,Azaerythromycin,[2]; [5],0.3%
same,"Other Impurities, RRT = 0.23",[2]; [5],"RRT = 0.23, % = 0.10"
same,"Other Impurities, RRT = 0.26",[2]; [5],"RRT = 0.26, % = 0.20"
same,"Other Impurities, RRT = 0.34",[2]; [5],"RRT = 0.34, % = 0.10"
same,"Other Impurities, RRT = 0.42",[2]; [5],"RRT = 0.42, % = 0.30"
same,"Other Impurities, RRT = 0.45",[2]; [5],"RRT = 0.45, % = 0.07"
same,"Other Impurities, RRT = 0.48",[2]; [5],"RRT = 0.48, % = 0.20"
same,"Other Impurities, RRT = 1.45",[2]; [5],"RRT = 1.45, % = 0.05"
same,"Other Impurities, RRT = 1.50",[2]; [5],"RRT = 1.50, % = 0.20"
same,"Other Impurities, RRT = 1.56",[2]; [5],"RRT = 1.56, % = 0.10"
same,Purity,[2]; [5],100.10%
same,Total Impurities,[2]; [5],1.60%
same,Water content,[2]; [5],5.9%
same,pH,[2]; [5],10.4
same,Appearance,[2]; [6],White crystalline
same,Azaerythromycin,[2]; [6],0.3%
same,"Other Impurities, RRT = 0.10",[2]; [6],"RRT = 0.10, % = 0.20"
same,"Other Impurities, RRT = 0.24",[2]; [6],"RRT = 0.24, % = 0.10"
same,"Other Impurities, RRT = 0.35",[2]; [6],"RRT = 0.35, % = 0.10"
same,"Other Impurities, RRT = 0.43",[2]; [6],"RRT = 0.43, % = 0.30"
same,"Other Impurities, RRT = 0.46",[2]; [6],"RRT = 0.46, % = 0.07"
same,"Other Impurities, RRT = 0.49",[2]; [6],"RRT = 0.49, % = 0.20"
same,"Other Impurities, RRT = 0.81",[2]; [6],"RRT = 0.81, % = 0.10"
same,"Other Impurities, RRT = 0.84",[2]; [6],"RRT = 0.84, % = 0.08"
same,"Other Impurities, RRT = 1.50",[2]; [6],"RRT = 1.50, % = 0.20"
same,"Other Impurities, RRT = 1.55",[2]; [6],"RRT = 1.55, % = 0.10"
same,Purity,[2]; [6],98.70%
same,Total Impurities,[2]; [6],1.80%
same,Water content,[2]; [6],5.8%
same,pH,[2]; [6],10.2
same,degradation after storage,"[3]; 3 months (at least about 3 months), 40° C. and 75% relative humidity",less than 2 % (w/w)
same,hygroscopicity (in words),[3]; [7],non-hygroscopic
same,stability (in words),[3]; [7],stable
same,water content after storage (in words),[3]; 3 months under accelerated conditions,remained substantially unchanged
same,Appearance,[3]; [8],White
same,Azaerythromycin,[3]; [8],0.3%
same,"Other Impurities, RRT = 0.23",[3]; [8],% = 0.10
same,"Other Impurities, RRT = 0.26",[3]; [8],% = 0.20
same,"Other Impurities, RRT = 0.34",[3]; [8],% = 0.10
same,"Other Impurities, RRT = 0.42",[3]; [8],% = 0.30
same,"Other Impurities, RRT = 0.45",[3]; [8],% = 0.07
same,"Other Impurities, RRT = 0.48",[3]; [8],% = 0.20
same,"Other Impurities, RRT = 1.45",[3]; [8],% = 0.05
same,"Other Impurities, RRT = 1.50",[3]; [8],% = 0.20
same,"Other Impurities, RRT = 1.56",[3]; [8],% = 0.10
same,Purity,[3]; [8],100.10%
same,Total Impurities,[3]; [8],1.60%
same,Water content,[3]; [8],5.9%
same,pH,[3]; [8],10.4
same,Appearance,[3]; [9],White
same,Azaerythromycin,[3]; [9],0.4%
same,"Other Impurities, RRT 0.23",[3]; [9],"0.23, 0.10%"
same,"Other Impurities, RRT 0.26",[3]; [9],"0.26, 0.20%"
same,"Other Impurities, RRT 0.35",[3]; [9],"0.35, 0.10%"
same,"Other Impurities, RRT 0.38",[3]; [9],"0.38, 0.05%"
same,"Other Impurities, RRT 0.43",[3]; [9],"0.43, 0.30%"
same,"Other Impurities, RRT 0.46",[3]; [9],"0.46, 0.08%"
same,"Other Impurities, RRT 0.48",[3]; [9],"0.48, 0.20%"
same,"Other Impurities, RRT 1.50",[3]; [9],"1.50, 0.20%"
same,"Other Impurities, RRT 1.56",[3]; [9],"1.56, 0.20%"
same,Purity,[3]; [9],101.00%
same,Total Impurities,[3]; [9],1.80%
same,Water content,[3]; [9],5.9%
same,pH,[3]; [9],10.0
same,Appearance,[3]; [10],White
same,Azaerythromycin,[3]; [10],0.3%
same,"Other Impurities, RRT 0.23",[3]; [10],"0.23, 0.10%"
same,"Other Impurities, RRT 0.25",[3]; [10],"0.25, 0.20%"
same,"Other Impurities, RRT 0.34",[3]; [10],"0.34, 0.10%"
same,"Other Impurities, RRT 0.42",[3]; [10],"0.42, 0.40%"
same,"Other Impurities, RRT 0.45",[3]; [10],"0.45, 0.05%"
same,"Other Impurities, RRT 0.48",[3]; [10],"0.48, 0.20%"
same,"Other Impurities, RRT 1.50",[3]; [10],"1.50, 0.20%"
same,"Other Impurities, RRT 1.56",[3]; [10],"1.56, 0.10%"
same,Purity,[3]; [10],99.50%
same,Total Impurities,[3]; [10],1.70%
same,Water content,[3]; [10],5.8%
same,pH,[3]; [10],10.3
same,Appearance,[3]; [11],White
same,Azaerythromycin,[3]; [11],0.3%
same,"Other Impurities, RRT 0.14",[3]; [11],"0.14, 0.20%"
same,"Other Impurities, RRT 0.24",[3]; [11],"0.24, 0.10%"
same,"Other Impurities, RRT 0.35",[3]; [11],"0.35, 0.20%"
same,"Other Impurities, RRT 0.43",[3]; [11],"0.43, 0.40%"
same,"Other Impurities, RRT 0.46",[3]; [11],"0.46, 0.07%"
same,"Other Impurities, RRT 0.49",[3]; [11],"0.49, 0.20%"
same,"Other Impurities, RRT 0.81",[3]; [11],"0.81, 0.06%"
same,"Other Impurities, RRT 0.85",[3]; [11],"0.85, 0.05%"
same,"Other Impurities, RRT 1.50",[3]; [11],"1.50, 0.20%"
same,"Other Impurities, RRT 1.55",[3]; [11],"1.55, 0.08%"
same,Purity,[3]; [11],98.10%
same,Total Impurities,[3]; [11],1.90%
same,Water content,[3]; [11],5.7%
same,pH,[3]; [11],10.3
same,degradation after storage,[3]; at least 3 months at 40° C. and 75% relative humidity,less than 2%
same,change in the water content after storage,[3]; at least about 3 months at 40° C. and 75% relative humidity,less than 5%
